In brackets after ≈: the same amount, converted by molar mass.
Experiments:
Proteus mirabilis [1] = assay: Antimicrobial activity against Non-ESBL Proteus mirabilis by broth microdilution method; assay type: functional
Serratia marcescens [2] = assay: Antimicrobial activity against Ceftazidime non-susceptible Serratia marcescens assessed as susceptible isolate by broth microdilution method; assay type: functional
Citrobacter [3] = assay: Antimicrobial activity against Citrobacter with nonderepressed AmpC beta-lactamsae by broth microdilution method; assay type: functional
Pseudomonas aeruginosa [4] = assay: Antimicrobial activity against Ceftazidime non-susceptible Pseudomonas aeruginosa assessed as resistant isolate by broth microdilution method; assay type: functional
Serratia marcescens [5] = assay: Antimicrobial activity against Ceftazidime susceptible Serratia marcescens assessed as intermediate isolate by broth microdilution method; assay type: functional
Citrobacter [6] = assay: Antimicrobial activity against Citrobacter with derepressed AmpC beta-lactamsae assessed as intermediate isolate by broth microdilution method; assay type: functional
Pseudomonas aeruginosa [7] = assay: Antimicrobial activity against Pseudomonas aeruginosa isolated from patient by broth microdilution method
Pseudomonas aeruginosa [8] = assay: Antimicrobial activity against Ceftazidime susceptible Pseudomonas aeruginosa assessed as intermediate isolate by broth microdilution method; assay type: functional
Citrobacter [9] = assay: Antimicrobial activity against Citrobacter with nonderepressed AmpC beta-lactamsae assessed as intermediate isolate by broth microdilution method; assay type: functional
Citrobacter [10] = assay: Antimicrobial activity against Citrobacter with nonderepressed AmpC beta-lactamsae assessed as resistant isolate by broth microdilution method; assay type: functional
Escherichia coli [11] = assay: Antimicrobial activity against Escherichia coli assessed as susceptible isolate by broth microdilution method; assay type: functional
Serratia marcescens [12] = assay: Antimicrobial activity against Serratia marcescens assessed as susceptible isolate by broth microdilution method; assay type: functional
Enterobacteriaceae [13] = assay: Antimicrobial activity against ceftazidime-susceptible Enterobacteriaceae assessed as susceptible isolate by broth microdilution method; assay type: functional
Acinetobacter [14] = assay: Antimicrobial activity against Acinetobacter assessed as resistant isolate by broth microdilution method; assay type: functional
Pseudomonas aeruginosa [15] = assay: Antimicrobial activity against imipenem susceptible Pseudomonas aeruginosa assessed as intermediate isolate by broth microdilution method; assay type: functional
Serratia marcescens [16] = assay: Antimicrobial activity against Ceftazidime non-susceptible Serratia marcescens by broth microdilution method; assay type: functional
Pseudomonas aeruginosa [17] = assay: Antimicrobial activity against imipenem susceptible Pseudomonas aeruginosa by broth microdilution method; assay type: functional
Serratia marcescens [18] = assay: Antimicrobial activity against Ceftazidime susceptible Serratia marcescens assessed as susceptible isolate by broth microdilution method; assay type: functional
Klebsiella pneumoniae [19] = assay: Antimicrobial activity against ESBL producing Klebsiella pneumoniae by broth microdilution method; assay type: functional
Proteus mirabilis [20] = assay: Antimicrobial activity against ESBL producing Proteus mirabilis assessed as susceptible isolate by broth microdilution method; assay type: functional
Streptococcus pneumoniae [21] = assay: Antimicrobial activity against penicillin-intermediate Streptococcus pneumoniae assessed as intermediate isolate by broth microdilution method; assay type: functional
Citrobacter [22] = assay: Antimicrobial activity against Citrobacter with derepressed AmpC beta-lactamsae by broth microdilution method; assay type: functional
Streptococcus pneumoniae [23] = assay: Antimicrobial activity against penicillin-resistant Streptococcus pneumoniae by broth microdilution method; assay type: functional; details: Streptococcus pneumoniae
Klebsiella pneumoniae [24] = assay: Antimicrobial activity against Non-ESBL Klebsiella pneumoniae assessed as intermediate isolate by broth microdilution method; assay type: functional
Acinetobacter [25] = assay: Antimicrobial activity against imipenem susceptible Acinetobacter assessed as susceptible isolate by broth microdilution method; assay type: functional
Pseudomonas aeruginosa [26] = assay: Antimicrobial activity against Pseudomonas aeruginosa by broth microdilution method; assay type: functional
Pseudomonas aeruginosa [27] = assay: Antimicrobial activity against Ceftazidime susceptible Pseudomonas aeruginosa by broth microdilution method; assay type: functional
Proteus mirabilis [28] = assay: Antimicrobial activity against Non-ESBL Proteus mirabilis assessed as resistant isolate by broth microdilution method; assay type: functional
Klebsiella pneumoniae [29] = assay: Antimicrobial activity against Non-ESBL Klebsiella pneumoniae by broth microdilution method; assay type: functional
Escherichia coli [30] = assay: Antimicrobial activity against Non-ESBL Escherichia coli assessed as susceptible isolate by broth microdilution method; assay type: functional
Serratia marcescens [31] = assay: Antimicrobial activity against Serratia marcescens assessed as resistant isolate by broth microdilution method; assay type: functional
Escherichia coli [32] = assay: Antimicrobial activity against ESBL producing Escherichia coli assessed as susceptible isolate by broth microdilution method; assay type: functional
Staphylococcus = assay: Antimicrobial activity against methicillin-resistant coagulase-negative Staphylococcus by broth microdilution method; assay type: functional
Escherichia coli [33] = assay: Antimicrobial activity against Escherichia coli assessed as intermediate isolate by broth microdilution method; assay type: functional
Acinetobacter [34] = assay: Antimicrobial activity against imipenem non-susceptible Acinetobacter assessed as susceptible isolate by broth microdilution method; assay type: functional
Escherichia coli [35] = assay: Antimicrobial activity against Non-ESBL Escherichia coli by broth microdilution method; assay type: functional
Enterobacteriaceae [36] = assay: Antimicrobial activity against Ceftazidime non-susceptible Enterobacteriaceae assessed as resistant isolate by broth microdilution method; assay type: functional
Proteus mirabilis [37] = assay: Antimicrobial activity against Proteus mirabilis assessed as susceptible isolate by broth microdilution method; assay type: functional
Klebsiella pneumoniae [38] = assay: Antimicrobial activity against Klebsiella pneumoniae assessed as susceptible isolate by broth microdilution method; assay type: functional
Pseudomonas aeruginosa [39] = assay: Antimicrobial activity against Pseudomonas aeruginosa assessed as intermediate isolate by broth microdilution method; assay type: functional
Pseudomonas aeruginosa [40] = assay: Antimicrobial activity against Pseudomonas aeruginosa assessed as susceptible isolate by broth microdilution method; assay type: functional
Acinetobacter [41] = assay: Antimicrobial activity against Acinetobacter assessed as susceptible isolate by broth microdilution method; assay type: functional
Pseudomonas aeruginosa [42] = assay: Antimicrobial activity against imipenem non-susceptible Pseudomonas aeruginosa assessed as intermediate isolate by broth microdilution method; assay type: functional
Acinetobacter [43] = assay: Antimicrobial activity against imipenem susceptible Acinetobacter assessed as intermediate isolate by broth microdilution method; assay type: functional
Enterobacter cloacae = assay: Antimicrobial activity against Enterobacter cloacae with nonderepressed AmpC beta-lactamsae by broth microdilution method; assay type: functional
Pseudomonas aeruginosa [44] = assay: Antimicrobial activity against Ceftazidime susceptible Pseudomonas aeruginosa assessed as resistant isolate by broth microdilution method; assay type: functional
Enterobacteriaceae [45] = assay: Antimicrobial activity against Ceftazidime non-susceptible Enterobacteriaceae by broth microdilution method; assay type: functional
Klebsiella pneumoniae [46] = assay: Antimicrobial activity against Non-ESBL Klebsiella pneumoniae assessed as susceptible isolate by broth microdilution method; assay type: functional
Escherichia coli [47] = assay: Antimicrobial activity against Escherichia coli by broth microdilution method; assay type: functional
Staphylococcus aureus = assay: Antimicrobial activity against methicillin-susceptible Staphylococcus aureus assessed as susceptible isolate by broth microdilution method; assay type: functional
Enterobacteriaceae [48] = assay: Antimicrobial activity against Ceftazidime non-susceptible Enterobacteriaceae assessed as intermediate isolate by broth microdilution method; assay type: functional
Serratia marcescens [49] = assay: Antimicrobial activity against Ceftazidime susceptible Serratia marcescens by broth microdilution method; assay type: functional
Serratia marcescens [50] = assay: Antimicrobial activity against Ceftazidime susceptible Serratia marcescens assessed as resistant isolate by broth microdilution method; assay type: functional

C[C@@H](O)[C@H]1C(=O)N2C(C(=O)O)=C(SCCNC=N)C[C@H]12 [IMIPENEM ANHYDROUS]
MIC50 (Proteus mirabilis [1]): 2 µg/mL (≈ 6.68 µM) | MIC90 (Proteus mirabilis [1]): 4 µg/mL (≈ 13.4 µM) | Activity (Serratia marcescens [2]): 100% | MIC50 (Citrobacter [3]): 0.5 µg/mL (≈ 1.67 µM) | MIC90 (Citrobacter [3]): 2 µg/mL (≈ 6.68 µM) | Activity (Pseudomonas aeruginosa [4]): 36.4% | Activity (Serratia marcescens [5]): 0.3% | Activity (Citrobacter [6]): 0% | Activity (Pseudomonas aeruginosa [7]): 7.9% | Activity (Pseudomonas aeruginosa [8]): 7.6% | Activity (Citrobacter [9]): 0% | Activity (Citrobacter [10]): 0.2% | Activity (Escherichia coli [11]): 100% | Activity (Serratia marcescens [12]): 98.9% | Activity (Enterobacteriaceae [13]): 99.6% | Activity (Acinetobacter [14]): 17% | Activity (Pseudomonas aeruginosa [15]): 0% | MIC50 (Serratia marcescens [16]): 2 µg/mL (≈ 6.68 µM) | MIC90 (Serratia marcescens [16]): 4 µg/mL (≈ 13.4 µM) | MIC50 (Pseudomonas aeruginosa [17]): 2 µg/mL (≈ 6.68 µM) | MIC90 (Pseudomonas aeruginosa [17]): 4 µg/mL (≈ 13.4 µM) | Activity (Serratia marcescens [18]): 98.9% | MIC50 (Klebsiella pneumoniae [19]): 0.5 µg/mL (≈ 1.67 µM) | MIC90 (Klebsiella pneumoniae [19]): 1 µg/mL (≈ 3.34 µM) | Activity (Proteus mirabilis [20]): 100% | Activity (Streptococcus pneumoniae [21]): 84.4% | MIC50 (Citrobacter [22]): 1 µg/mL (≈ 3.34 µM) | MIC90 (Citrobacter [22]): 2 µg/mL (≈ 6.68 µM) | MIC50 (Streptococcus pneumoniae [23]; read-out: MIC50): 0.5 µg/mL (≈ 1.67 µM) | MIC90 (Streptococcus pneumoniae [23]; read-out: MIC90): 1 µg/mL (≈ 3.34 µM) | Activity (Klebsiella pneumoniae [24]): 0.1% | Activity (Acinetobacter [25]): 100% | MIC50 (Pseudomonas aeruginosa [26]): 4 µg/mL (≈ 13.4 µM) | MIC90 (Pseudomonas aeruginosa [26]): 32 µg/mL (≈ 107 µM) | MIC50 (Pseudomonas aeruginosa [27]): 4 µg/mL (≈ 13.4 µM) | MIC90 (Pseudomonas aeruginosa [27]): 16 µg/mL (≈ 53.4 µM) | Activity (Proteus mirabilis [28]): 0.2% | MIC50 (Klebsiella pneumoniae [29]): 0.5 µg/mL (≈ 1.67 µM) | MIC90 (Klebsiella pneumoniae [29]): 1 µg/mL (≈ 3.34 µM) | Activity (Escherichia coli [30]): 100% | Activity (Serratia marcescens [31]): 0.8% | Activity (Escherichia coli [32]): 100% | MIC50 (Staphylococcus): 0.25 µg/mL (≈ 0.835 µM) | MIC90 (Staphylococcus): 16 µg/mL (≈ 53.4 µM) | Activity (Escherichia coli [33]): 0% | Activity (Acinetobacter [34]): 0% | MIC50 (Escherichia coli [35]): 0.25 µg/mL (≈ 0.835 µM) | MIC90 (Escherichia coli [35]): 0.5 µg/mL (≈ 1.67 µM) | Activity (Enterobacteriaceae [36]): 1% | Activity (Proteus mirabilis [37]): 97.3% | Activity (Klebsiella pneumoniae [38]): 99.7% | Activity (Pseudomonas aeruginosa [39]): 7.7% | Activity (Pseudomonas aeruginosa [40]): 76.3% | Activity (Acinetobacter [41]): 82.4% | Activity (Pseudomonas aeruginosa [42]): 32.4% | Activity (Acinetobacter [43]): 0% | MIC50 (Enterobacter cloacae): 1 µg/mL (≈ 3.34 µM) | MIC90 (Enterobacter cloacae): 2 µg/mL (≈ 6.68 µM) | Activity (Pseudomonas aeruginosa [44]): 13.1% | MIC50 (Enterobacteriaceae [45]): 1 µg/mL (≈ 3.34 µM) | MIC90 (Enterobacteriaceae [45]): 2 µg/mL (≈ 6.68 µM) | Activity (Klebsiella pneumoniae [46]): 99.8% | MIC50 (Escherichia coli [47]): 0.25 µg/mL (≈ 0.835 µM) | MIC90 (Escherichia coli [47]): 0.5 µg/mL (≈ 1.67 µM) | Activity (Staphylococcus aureus): 100% | Activity (Enterobacteriaceae [48]): 1.7% | MIC50 (Serratia marcescens [49]): 2 µg/mL (≈ 6.68 µM) | MIC90 (Serratia marcescens [49]): 4 µg/mL (≈ 13.4 µM) | Activity (Serratia marcescens [50]): 0.8%

Reference: ChEMBL document CHEMBL1275550, “In vitro activity of doripenem, a carbapenem for the treatment of challenging infections caused by gram-negative bacteria, against recent clinical isolates from the United States” (2008)
